Results as given in PMC4368485 (Neuron, 2015).

What was measured:
[1] = estimated from the literature ref Yang et al., 2003, Nicholson et al., 2007; cited from earlier work
[2] = biological target: rat GluN1-1a/GluN2B receptors (Rattus norvegicus, UniProt P35439+Q00960); conditions: Table S6 ref Mott et al., 1998; cited from earlier work
latency to fall = assay: Rotorod test; assay type: in vivo, mouse; conditions: mice, vehicle 140±13 sec
[3] = system: horizontal locomotor activity; assay: Locomotor activity; assay type: in vivo, rat; conditions: at high doses IP; rats; cumulative 2 hr

Sequence of rat GluN1-1a/GluN2B receptors (Q00960 27-1482, other chains not shown): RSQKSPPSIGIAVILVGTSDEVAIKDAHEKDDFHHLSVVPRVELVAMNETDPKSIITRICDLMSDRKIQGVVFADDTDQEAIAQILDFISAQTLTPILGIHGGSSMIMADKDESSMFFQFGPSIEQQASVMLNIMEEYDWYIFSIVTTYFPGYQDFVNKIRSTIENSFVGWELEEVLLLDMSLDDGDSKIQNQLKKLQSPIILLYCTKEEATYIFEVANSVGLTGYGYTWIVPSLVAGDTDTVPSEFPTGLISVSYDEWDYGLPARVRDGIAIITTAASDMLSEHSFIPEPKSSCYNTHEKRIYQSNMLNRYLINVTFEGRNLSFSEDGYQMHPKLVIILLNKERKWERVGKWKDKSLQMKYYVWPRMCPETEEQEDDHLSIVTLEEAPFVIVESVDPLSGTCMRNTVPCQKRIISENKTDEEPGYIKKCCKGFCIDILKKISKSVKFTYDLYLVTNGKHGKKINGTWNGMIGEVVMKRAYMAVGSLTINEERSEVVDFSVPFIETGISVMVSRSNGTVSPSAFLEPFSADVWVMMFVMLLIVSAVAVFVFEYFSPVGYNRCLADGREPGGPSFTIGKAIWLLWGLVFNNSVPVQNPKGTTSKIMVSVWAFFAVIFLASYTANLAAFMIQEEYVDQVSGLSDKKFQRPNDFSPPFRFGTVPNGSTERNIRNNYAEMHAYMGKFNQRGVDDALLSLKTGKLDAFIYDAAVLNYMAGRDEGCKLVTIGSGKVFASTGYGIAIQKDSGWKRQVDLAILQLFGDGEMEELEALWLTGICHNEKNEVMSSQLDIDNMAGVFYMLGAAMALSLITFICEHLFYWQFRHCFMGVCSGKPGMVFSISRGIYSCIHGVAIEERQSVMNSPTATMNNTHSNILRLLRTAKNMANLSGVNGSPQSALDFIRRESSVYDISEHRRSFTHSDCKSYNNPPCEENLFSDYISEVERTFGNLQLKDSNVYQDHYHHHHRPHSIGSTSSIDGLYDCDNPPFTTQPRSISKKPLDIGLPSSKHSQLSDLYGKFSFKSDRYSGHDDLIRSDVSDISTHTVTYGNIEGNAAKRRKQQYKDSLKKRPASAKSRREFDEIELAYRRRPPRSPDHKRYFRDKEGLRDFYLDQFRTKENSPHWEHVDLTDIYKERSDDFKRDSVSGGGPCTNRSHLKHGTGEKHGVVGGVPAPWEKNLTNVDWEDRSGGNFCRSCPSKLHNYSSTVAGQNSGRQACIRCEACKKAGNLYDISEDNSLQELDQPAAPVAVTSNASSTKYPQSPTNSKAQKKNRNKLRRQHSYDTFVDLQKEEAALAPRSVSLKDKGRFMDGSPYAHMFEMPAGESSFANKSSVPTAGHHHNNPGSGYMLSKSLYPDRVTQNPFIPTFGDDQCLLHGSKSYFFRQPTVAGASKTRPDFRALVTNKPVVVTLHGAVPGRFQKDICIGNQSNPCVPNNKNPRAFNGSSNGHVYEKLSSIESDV

**Q.** What does the source list for C[C@@H]([C@@H](O)c1ccc(O)cc1)N1CCC(O)(c2ccccc2)CC1 [CP-101,606]?
**A.** therapeutic ratio (TR) for neuroprotection [1]: ~ 4; pH sensitivity of inhibition [2]: lack substantial pH sensitivity

**Q.** What does the source list for CC(C(O)c1ccc(O)cc1)N1CCC(Cc2ccccc2)CC1 (centres unmarked) [ifenprodil]?
**A.** rotorod latency to fall (latency to fall; 30 mg/kg IP): 35 ± 6 s; effect on locomotor activity [3]: reduced

**Q.** For (+)MK-801, which “rotorod latency to fall” value (latency to fall; 0.6 mg/kg IP) is on record?
**A.** The value was 3 ± 2 s.
